Measured values from patent publication US6486128B1, “Method of using emamectin to treat fish parasites” (Schering-Plough Veterinary Corporation, priority 1999, dated 2002).

What was measured:
[1] = Daily observation of fish for behavior, adverse drug reactions and mortalities (three studies); format: in vivo, Atlantic salmon, Salmo salar L.; settings: at the dosage levels and dosage schedule of the invention
Procedure: Fish were held in replicate groups in plastic fiber tanks, each with a volume of 0.54 m^3. Each tank was supplied with natural sea water at ambient temperature (7-14° C.) and salinity (30-35 ppt), at flow rates of approximately 18 l. min^−1. The tanks were fitted with mesh screens over the water outlet to retain uneaten fish pellets. Fish were observed daily for behavior and adverse drug reactions. Fish mortalities and the occurrence of gross sea lice damage were also recorded.

parasites = assay: Sustained efficacy after emamectin treatment; format: in vivo

Substance: 4″-deoxy-4″ epimethylaminoavermectin B1 [emamectin]
- toxicity to fish populations [1]: not toxic
- sustained efficacy after treatment (parasites): 8 to 10 weeks
